Data: patent US7691874B2, “Neuroprotective properties of dextrorotatory morphinans” (priority 2004, dated 2010)
Marks after values point to notes of the source that are not given here.

What was measured:
MPTP-treated mice [1] = assay: MPTP model, HM versus L-dopa/carbidopa: locomotor activity; format: in vivo; conditions: HM 24 mg/kg i.p., L-dopa 200 mg/kg p.o., carbidopa 20 mg/kg p.o., 2 weeks before MPTP
Protocol: FIGS. 20A-20B show effects of carbidopa, L-dopa, carbidopa+L-dopa and HM on the changes in locomotor activity (A) and locomotor pattern (B) induced by MPTP in mice.
A prescription drug for treating Parkinsonian patients is L-dopa or carbidopa plus L-dopa. Thus, the neuroprotective effects of HM was compared with L-dopa, carbidopa, or carbidopa plus L-dopa. […] Locomotor activity was examined for 60 min after final treatment of MPTP. Mice were sacrificed at 24 h after final MPTP administration. HM (24 mg/kg, i.p.), L-dopa (200 mg/kg, p.o.) with or without carbidopa (20 mg/kg, p.o.) was administered for 2 weeks before first MPTP challenge.

LPS-treated mice [2] = assay: LPS model, HM versus L-dopa/carbidopa: mortality; format: in vivo; conditions: intrastriatal LPS 2 μg x 4/head; 2 weeks
Protocol: Mortality was observed by 2 weeks after LPS injection. *P<0.01 vs. Saline+LPS (x^2-test).
The neuroprotective effect of HM was compared with L-dopa, carbidopa, or carbidopa plus L-dopa in response to dopaminergic damage induced by LPS. Intrastriatal injection of LPS (2 μg×4/head) produced high mortality (ten animals died out of twelve animals in the 2 weeks after LPS administration).

LPS-treated mice [3] = assay: LPS model, HM versus L-dopa/carbidopa: nigral TH-IR; conditions: mouse, in vivo
Excerpt: FIG. 27 show effects of carbidopa, L-dopa, carbidopa+L-dopa and HM on the nigral tyrosine hydroxylase-like immunoreactivity (TH-IR) of the mice treated with LPS.

LPS-treated mice [4] = assay: LPS model, HM versus L-dopa/carbidopa: microglia F4/80-like immunoreactivity; format: in vivo; conditions: substantia nigra
MA-treated mice [5] = assay: MA model, HM versus L-dopa/carbidopa: hyperthermia; format: in vivo; conditions: MA 7.5 mg/kg i.p. x 4
Protocol: FIGS. 31A-31B show effect of drugs on the MA-induced hyperthermia. Mice received MA injections as 2 hrs' time interval under the ambient temperature of 22.0±0.5° C.
Experimental paradigm for MA with or without compounds is in FIG. 30. Treatment with MA (7.5 mg/kg, i.p.×four times as two hour time interval) produces hyperthermia (P<0.01).

C57 BL/6 mice [6] = assay: Locomotor activity and locomotor pattern following repeated administration of morphinans or PCP; format: in vivo
C57 BL/6 mice [7] = assay: Conditioned place preference (psychological dependence) following repeated administration of morphinans or PCP; format: in vivo; conditions: 20 or 40 mg/kg i.p. (PCP 2.5 or 5 mg/kg); vs saline
Protocol: On day 14, the guillotine doors were raised. […] Data were analyzed between 0900 and 1700 hr.

MPTP-treated mice [8] = assay: Hypokinesia (reduction in locomotor activity) induced by MPTP; format: in vivo; conditions: 12 or 24 mg/kg i.p. 30 min before MPTP (20 mg/kg/day x 7), last three days
LPS-treated mice [9] = assay: Striatal dopamine and metabolites in LPS-treated mice; format: in vivo; conditions: for Concentration DA in the striatum: 3 weeks after LPS
Excerpt: (§1) Control animals received striatal injection with PBS.
Mice were sacrificed at 3 weeks after LPS treatment.

LPS-treated mice [10] = assay: Nigral TH-IR in LPS-treated mice; format: in vivo; conditions: 24 mg/kg i.p.
Excerpt: FIGS. 8A-8B. […] Magnification=40×.
as §1

MA-treated mice [11] = assay: Methamphetamine (MA)-induced hyperthermia; format: in vivo; conditions: 24 mg/kg; MA 7.5 mg/kg i.p. x 4 at 2-h intervals
Protocol: Rectal temperature was recorded at 40 min after each MA treatment. […] Mice were sacrificed at 3 days after final MA injection.
FIGS. 10A-10B show effect of morphinans on the methamphetamine (MA)-induced hyperthermia. Mice received i.p. injections of MA (four injections of 7.5 mg/kg each) at 2-h intervals under the ambient temperature of 22.0±0.5° C. Temperatures were recorded at 40 min after each MA treatment (Arrow=MA injection).

MA-treated mice [12] = assay: Hypokinesia induced by MA; format: in vivo; conditions: 12 and 24 mg/kg; 3 days after final MA
MA-treated mice [13] = assay: Striatal dopamine and metabolites in MA-treated mice; format: in vivo; conditions: for Concentration DA in the striatum: 3 days after final MA
Excerpt: Mice were sacrificed at 3 days after final MA injection.

cocaine-treated mice [14] = assay: Cocaine-induced hyperlocomotion; format: in vivo
Protocol: FIGS. 34A-34B show effect of morphinans on the cocaine-induced hyperactivity in the mice. Morphinans (15 and 30 mg/kg, i.p.) were administered 30 minutes prior to cocaine (5 and 20 mg/kg, i.p.). Central activity means relatively non-specific locomotor activity in the center of the box. Marginal activity means circling behaviors. All treatments were performed for 7 days.
FIGS. 35A-35D show effect of dimemorfan (DF) on cocaine-induced hyperactivity in the mice. DF (20 mg/kg, i.p.) was administered 30 minutes prior to cocaine (5 and 20 mg/kg, i.p.). All treatments were performed for 7 days.

MA-treated mice [15] = assay: MA-induced hyperlocomotion; format: in vivo; conditions: morphinan 20 mg/kg i.p. 30 min before MA 1 mg/kg i.p./day x 7
Protocol: FIGS. 39A-39D show effect of morphinans on the MA-induced hyperactivity in the mice. Each morphinan (20 mg/kg, i.p.) was administered 30 minutes prior to MA (1 mg/kg, i.p.). All treatments were performed for 7 days.

MA-treated mice [16] = assay: MA-induced behavioural sensitization; conditions: morphinan 20 mg/kg i.p., last 3 days of wash-out (Ex. 3.12)
Protocol: Morphinans (20 mg/kg, i.p.) were administered last 3 days of wash-out period.

[17] = tested on: NMDA receptor associated PCP sites; conditions: cited from earlier work
σ1 receptors = σ1 receptors (Homo sapiens, UniProt Q99720); conditions: cited from earlier work
[18] = tested on: kainate or maximal electric shock; conditions: kainate (24) or maximal electric shock (27); cited from earlier work
MA-treated mice [19] = assay: Nigral TH-IR in MA-treated mice; conditions: 24 mg/kg i.p.
MA-treated mice [20] = assay: MA-induced FRA-IR in the striatum; conditions: morphinan 20 mg/kg i.p.; MA 1 mg/kg i.p./day x 7
Protocol: Therefore, brains were removed and used for immunocytochemical analysis at 18 h after the final cocaine/MA treatment. The coronal sections containing striatum were processed for FRA immunocytochemistry. […] The FRA antibody was used at 1:2,000 as the optimal dilution. The FRA-IR in the striatum was calculated using image analysis systems with a polaroid digital microscopic camera (Optimas version 6.2).

LPS-treated mice [21] = assay: Hypokinesia induced by intrastriatal LPS; conditions: 12 or 24 mg/kg, twice before bilateral intrastriatal LPS
MPTP-treated mice [22] = assay: Striatal dopamine and metabolites (HPLC-EC) in MPTP-treated mice; conditions: for Concentration DA in the striatum: mean ± S.E.M., 8 animals
Protocol: (§2) Each morphinan was administered 30 min prior to every injection of MPTP for last three days (from day 4th to day 7th). Animals were sacrificed 24 h after the last MPTP treatment.
Brains were rapidly removed and cut into 1 mm coronal sections on ice. The striatum was punched using a fine pasteur pipette (3, 21, 22), and stored at −70° C. DA and its metabolites, 3,4-dihydroxyphenylacetic acid (DOPAC) and homovanilic acid (HVA) were measured by HPLC-eletrochemical detection (3, 21, 22). Briefly, the striatum was homogenized in 0.2 M perchloric acid containing 3,4-dihydroxybenzylamine as an internal standard (10 mg wet weight of tissue per ml). The homogenate was centrifuged and a 20-μl aliquot of the supernatant was injected into the HPLC equipped with an ODS-C18 column. The mobile phase was comprised of 26 ml of acetonitrile, 21 ml of tetrahydrofuran and 960 ml of 0.15 M monochloroacetic acid (pH 3.0) containing 50 mg/l of EDTA and 200 mg/l of sodium octyl sulfate. The amount of DA, DOPAC and HVA were determined by comparison of peak height ratio of tissue sample with standards, and were expressed in nanograms per 100 mg of wet weight of tissue.
Each morphinan was administered 30 min before every injection of MPTP for last three days. Animals were sacrificed at 24 h after the last MPTP injection.

MPTP-treated mice [23] = assay: Nigral tyrosine hydroxylase-like immunoreactivity in MPTP-treated mice; conditions: 24 mg/kg i.p.
Protocol: as §2

cocaine-treated mice [24] = assay: Cocaine-induced Fos-related antigen-immunoreactivity (FRA-IR) in the striatum; conditions: cocaine 5 mg/kg; morphinan 20 mg/kg i.p.

Chain of σ1 receptors (Q99720 whole entry): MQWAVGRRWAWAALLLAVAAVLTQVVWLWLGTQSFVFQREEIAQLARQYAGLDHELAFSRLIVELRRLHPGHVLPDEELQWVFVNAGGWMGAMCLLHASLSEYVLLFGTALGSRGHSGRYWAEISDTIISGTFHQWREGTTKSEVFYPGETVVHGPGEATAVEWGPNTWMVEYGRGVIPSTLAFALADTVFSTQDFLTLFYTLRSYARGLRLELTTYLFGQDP

## C[C@@](Cc1ccc(O)c(O)c1)(NN)C(=O)O [carbidopa]
MPTP-treated mice [1]
  effect on MPTP-induced decrease in locomotor activity: appeared to increase
LPS-treated mice [2]
  effect on mortality induced by LPS: appears to attenuate mortality induced by LPS
LPS-treated mice [3]
  effect on LPS-induced loss in nigral TH-IR: significantly attenuated
LPS-treated mice [4]
  effect on LPS-induced increase in F4/80-like immunoreactivity (microglia): significantly attenuated
MA-treated mice [5]
  effect on MA-induced hyperthermia: significantly attenenuated

## CN1CC[C@]23CCCC[C@H]2[C@H]1Cc1ccc(OCC2CC2)cc13 [CM, 3-cyclopropylmethoxy-17-methylmorphinan]
C57 BL/6 mice [6]; 40 mg/kg i.p. (PCP 5 mg/kg), FIG. 3
  locomotor pattern (tracings): did not produce significant marginal activity
C57 BL/6 mice [6]; 20 or 40 mg/kg i.p./day x 7 (PCP 2.5 or 5 mg/kg), 3-min period, vs saline
  marginal activity (circling behaviour; absolute turn angular): did not significantly affect marginal activity
C57 BL/6 mice [6]; 20 or 40 mg/kg i.p./day x 7 days, 30 min after final treatment, vs saline
  locomotor activity (total distance moved): comparable to that with saline
C57 BL/6 mice [7]
  conditioned place preference (CPP): almost no CPP effects
MPTP-treated mice [8]
  effect on MPTP-induced reduction in locomotor activity: significantly prevented MPTP-induced reduction in locomotor activity
LPS-treated mice [9]; 24 mg/kg pretreatment
  effect on LPS-induced reductions in striatal DA, DOPAC and HVA: significantly protected
LPS-treated mice [9]; morphinan 12 (mg/kg) + LPS
  Concentration DOPAC in the striatum: 70 ± 7 ng/100 mg wet tissue
  Concentration HVA in the striatum: 83 ± 6 ng/100 mg wet tissue
LPS-treated mice [9]; morphinan 12 (mg/kg) + LPS, mean ± S.E.M., 8 animals
  Concentration DA in the striatum: 482 ± 54 ng/100 mg wet tissue
LPS-treated mice [9]; morphinan 24 (mg/kg) + LPS
  Concentration DOPAC in the striatum: 86 ± 9^c ng/100 mg wet tissue
  Concentration HVA in the striatum: 89 ± 7^c ng/100 mg wet tissue
  Concentration DA in the striatum: 684 ± 56^c ng/100 mg wet tissue
LPS-treated mice [10]
  effect on LPS-induced reduction in nigral TH-positive cells: significantly attenuated the reduction in TH-positive cells
MA-treated mice [11]
  effect on MA-induced hyperthermia (rectal temperature): attenuated by all morphinans used in this study
MA-treated mice [12]
  effect on MA-induced reduction in locomotor activity: significantly prevented MA-induced reduction in locomotor activity
MA-treated mice [13]; 24 mg/kg pretreatment
  effect on MA-induced reductions in striatal DA, DOPAC and HVA: significantly protected
MA-treated mice [13]; morphinan 12 (mg/kg) + MA
  Concentration DOPAC in the striatum: 82 ± 10 ng/100 mg wet tissue
  Concentration HVA in the striatum: 83 ± 9 ng/100 mg wet tissue
MA-treated mice [13]; morphinan 12 (mg/kg) + MA, mean ± S.E.M., 8 animals
  Concentration DA in the striatum: 668 ± 81 ng/100 mg wet tissue
MA-treated mice [13]; morphinan 24 (mg/kg) + MA
  Concentration DOPAC in the striatum: 99 ± 10^b ng/100 mg wet tissue
  Concentration HVA in the striatum: 94 ± 12^b ng/100 mg wet tissue
  Concentration DA in the striatum: 777 ± 66^c ng/100 mg wet tissue
cocaine-treated mice [14]; cocaine 5 mg/kg i.p. x 7 days, morphinan 15 or 30 mg/kg (DF 20 mg/kg) i.p.
  effect on locomotor activity induced by low dose of cocaine: consistently attenuated locomotor activity induced by a low dose of cocaine
cocaine-treated mice [14]; cocaine 20 mg/kg i.p. x 7 days, morphinan 15 or 30 mg/kg i.p. 30 min before
  effect on hyperactivity induced by high dose of cocaine: not uniform
MA-treated mice [15]
  effect on MA-induced hyperlocomotion: consistently effective in attenuating hyperlocomotion induced by MA
MA-treated mice [16]
  effect on MA-induced behavioural sensitization: significantly reduced
[17]
  affinity for NMDA receptor associated PCP sites: very low affinities
σ1 receptors
  affinity for σ1 receptors: high affinity ligands
[18]
  anticonvulsant effect: exhibited anticonvulsant effects
MA-treated mice [19]
  effect on MA-induced decrease in nigral TH-positive cells: significantly attenuated the decrease in TH-positive cells
MA-treated mice [20]
  effect on MA-induced FRA-IR in the striatum: apparently attenuated
LPS-treated mice [21]
  effect on LPS-induced decrease in locomotor activity: significantly prevented LPS-induced decrease in locomotor activity
MPTP-treated mice [22]; 24 mg/kg pretreatment
  effect on MPTP-induced reductions in striatal DA, DOPAC and HVA: significantly protected
MPTP-treated mice [22]; morphinan 12 (mg/kg) + MPTP
  Concentration DOPAC in the striatum: 58 ± 6 ng/100 mg wet tissue
  Concentration HVA in the striatum: 68 ± 9 ng/100 mg wet tissue
  Concentration DA in the striatum: 489 ± 69 ng/100 mg wet tissue
MPTP-treated mice [22]; morphinan 24 (mg/kg) + MPTP
  Concentration DOPAC in the striatum: 78 ± 10^b ng/100 mg wet tissue
  Concentration HVA in the striatum: 89 ± 7^b ng/100 mg wet tissue
  Concentration DA in the striatum: 587 ± 76^b ng/100 mg wet tissue
MPTP-treated mice [23]
  effect on MPTP-induced decrease in nigral TH-positive cells: significantly attenuated the decrease in TH-positive cells
cocaine-treated mice [24]
  effect on cocaine-induced FRA-IR in the striatum: apparently attenuated
